This is an account of results in US11485733B2, “Azaquinoline derivatives” (BAYER ANIMAL HEALTH GMBH, priority 2017, dated 2022).

For one assay, the system named is Cooperia curticei. Nature of the assay: Cooperia curticei larval mortality. The note with it: 120 h, read-out: activity (percentage of larval mortality).
A further assay has as its system Dirofilaria immitis. In words: Dirofilaria immitis (DIROIM L4) larval motility. The conditions noted are these: 72 h, read-out: EC50 (reduction of motility).
Another assay concerns the target C. elegans Slo-1a (Caenorhabditis elegans, UniProt Q95V25). The note with it: pE50 (negative decadic logarithm of EC50), CHO cells expressing C. elegans Slo-1a; voltage sensitive dye, 70 mM KCl.
In assay [1] the test system is Dirofilaria immitis microfilariae. In words: Dirofilaria immitis microfilariae (DIROIM L1) motility. The note with it: 72 h, read-out: EC50 (reduction of motility).
Assay [2] relates to Nippostrongylus brasiliensis. Nature of the assay: Nippostrongylus brasiliensis (NIPOBR) adult worms, acetylcholine esterase readout. The conditions noted are these: read-out: activity (reduction of AChE compared to negative control); for inhibition at 1 µg/mL: at 1 μg/ml (1 ppm); for inhibition at 10 µg/mL: at 10 μg/ml (10 ppm). As to the method:
In Vitro Assay 3: Nippostrongylus brasiliensis (NIPOBR)
Adult Nippostrongylus brasiliensis were washed with saline buffer containing 100 U/ml penicillin, 0.1 mg/ml streptomycin and 2.5 μg/ml amphotericin B. Test compounds were dissolved in DMSO and worms were incubated in medium in a final concentration of 10 μg/ml (10 ppm) respectively 1 μg/ml (1 ppm). An aliquot of the medium was used to determine the acetylcholine esterase activity in comparison to a negative control. The principle of measuring acetylcholine esterase as readout for anthelmintic activity was described in Rapson et al (1986) and Rapson et al (1987).

A further assay deals with D. immitis Slo-1 (Dirofilaria immitis, UniProt I0DFK5). Nature of the assay: D. immitis Slo-1, action at a recombinant CHO cell line (membrane potential, FLIPR). The format is cell-based.
The test system of a further assay is Haemonchus contortus. In words: Haemonchus contortus larval mortality. The note with it: 120 h, read-out: activity (percentage of larval mortality).

Sequence of C. elegans Slo-1a (Q95V25 whole entry): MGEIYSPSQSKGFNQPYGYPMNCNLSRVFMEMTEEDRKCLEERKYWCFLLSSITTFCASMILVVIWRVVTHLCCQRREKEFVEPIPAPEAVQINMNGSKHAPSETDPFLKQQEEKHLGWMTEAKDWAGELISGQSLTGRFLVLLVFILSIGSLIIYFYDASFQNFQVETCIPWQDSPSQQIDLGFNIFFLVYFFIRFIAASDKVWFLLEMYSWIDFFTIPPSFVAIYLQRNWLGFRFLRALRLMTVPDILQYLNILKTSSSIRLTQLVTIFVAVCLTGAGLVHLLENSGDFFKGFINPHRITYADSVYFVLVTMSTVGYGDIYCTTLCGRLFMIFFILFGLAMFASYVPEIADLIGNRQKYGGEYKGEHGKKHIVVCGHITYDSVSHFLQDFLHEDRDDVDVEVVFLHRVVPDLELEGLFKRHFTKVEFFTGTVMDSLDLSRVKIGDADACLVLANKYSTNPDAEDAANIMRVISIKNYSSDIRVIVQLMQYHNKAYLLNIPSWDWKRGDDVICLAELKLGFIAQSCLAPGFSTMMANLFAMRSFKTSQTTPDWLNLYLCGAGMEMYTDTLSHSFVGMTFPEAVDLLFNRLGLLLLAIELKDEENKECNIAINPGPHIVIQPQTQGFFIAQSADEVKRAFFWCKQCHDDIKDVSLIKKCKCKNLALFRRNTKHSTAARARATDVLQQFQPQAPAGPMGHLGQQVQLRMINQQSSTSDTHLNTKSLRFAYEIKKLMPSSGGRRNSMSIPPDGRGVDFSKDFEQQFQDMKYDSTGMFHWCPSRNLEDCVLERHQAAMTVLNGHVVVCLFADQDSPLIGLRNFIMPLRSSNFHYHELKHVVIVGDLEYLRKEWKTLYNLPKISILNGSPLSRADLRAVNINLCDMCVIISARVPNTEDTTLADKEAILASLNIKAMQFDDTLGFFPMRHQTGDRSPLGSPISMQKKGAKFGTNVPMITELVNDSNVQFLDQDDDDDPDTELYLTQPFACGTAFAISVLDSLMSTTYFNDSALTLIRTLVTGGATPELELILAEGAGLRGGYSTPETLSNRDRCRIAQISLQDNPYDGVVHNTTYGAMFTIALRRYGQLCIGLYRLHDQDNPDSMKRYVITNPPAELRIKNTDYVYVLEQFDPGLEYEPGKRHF
Sequence of D. immitis Slo-1 (I0DFK5 1-1119): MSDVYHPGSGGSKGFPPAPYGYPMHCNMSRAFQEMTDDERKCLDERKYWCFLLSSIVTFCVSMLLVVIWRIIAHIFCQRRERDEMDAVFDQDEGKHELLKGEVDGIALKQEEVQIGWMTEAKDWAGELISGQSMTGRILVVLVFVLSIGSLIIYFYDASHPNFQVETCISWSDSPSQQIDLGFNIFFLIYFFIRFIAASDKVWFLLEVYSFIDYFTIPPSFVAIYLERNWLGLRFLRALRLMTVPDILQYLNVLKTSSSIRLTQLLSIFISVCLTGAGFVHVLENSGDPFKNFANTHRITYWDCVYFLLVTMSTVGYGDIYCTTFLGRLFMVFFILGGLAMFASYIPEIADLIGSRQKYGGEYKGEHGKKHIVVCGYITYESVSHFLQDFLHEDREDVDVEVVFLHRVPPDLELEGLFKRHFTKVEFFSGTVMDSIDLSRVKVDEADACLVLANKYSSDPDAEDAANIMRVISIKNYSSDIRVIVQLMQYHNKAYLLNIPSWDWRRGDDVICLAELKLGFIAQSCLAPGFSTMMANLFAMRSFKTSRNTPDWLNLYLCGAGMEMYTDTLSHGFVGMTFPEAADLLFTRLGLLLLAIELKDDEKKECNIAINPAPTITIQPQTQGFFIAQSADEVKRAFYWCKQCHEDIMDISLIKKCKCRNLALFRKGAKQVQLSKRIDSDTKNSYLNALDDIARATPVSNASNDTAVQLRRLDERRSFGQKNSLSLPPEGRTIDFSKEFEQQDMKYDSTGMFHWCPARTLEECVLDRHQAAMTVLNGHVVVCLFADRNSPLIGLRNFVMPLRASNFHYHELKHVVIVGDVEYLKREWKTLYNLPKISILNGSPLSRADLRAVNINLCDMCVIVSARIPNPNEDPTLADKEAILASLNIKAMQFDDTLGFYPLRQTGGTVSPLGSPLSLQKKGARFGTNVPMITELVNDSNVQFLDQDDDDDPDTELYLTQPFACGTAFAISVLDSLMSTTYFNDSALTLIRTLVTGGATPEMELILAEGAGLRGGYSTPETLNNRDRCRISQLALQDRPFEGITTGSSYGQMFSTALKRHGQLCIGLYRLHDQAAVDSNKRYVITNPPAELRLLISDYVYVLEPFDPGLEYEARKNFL
Experimental for C. elegans Slo-1a: Generation of a Stable C. elegans CHO Cell Line
A CHO cell line was obtained from ATCC, code ATCC CRL-9096. […] The transfection solution included 300 μL OptiMEM (Life Technologies, Nr.: 31985), 2 μL (=6 μg) of plasmid DNA containing the C. elegans Slo 1a gene and 9 μL FugeneHD (Promega, Nr.: E2311), and was added to the cells prior to incubation for 48 hours at 37° C., 5% CO2. The transfection medium was exchanged for the selection medium which contains additional G418 (2 mg/ml, Invitrogen, Nr.: 10131) and the cells were seeded into 384 well plates (300 cells/well). After a few weeks, the remaining surviving cells were tested with a voltage sensitive dye (Membrane Potential Assay Kit, Molecular Devices Nr.: R8034) for K+ channel expression. Positive cell clones were purified by the limited dilution technique. For this the clone with the highest and most robust signal in the voltage sensitive dye assay was further subcloned (incubated) in 384 well plates (0.7 cells/well) in order to obtain clonal purity. This generated a final stable CHO cell line expressing the C. elegans Slo-1a.
Cells were cultured at 37° C. and 5% CO2 in MEMalpha with Gutamax I (Invitrogen, Nr.: 32571), supplemented with 10% (v/v) heat inactivated fetal bovine serum (Invitrogen, Nr.: 10500), G418 (1 mg/ml, Invitrogen, Nr.: 10131). Cells were detached using Accutase (Sigma, Nr.: A6964).
Membrane Potential Measurements
Laboratory compound testing was performed on 384-well microtiter plates (MTPs, Greiner, Nr.: 781092). 8000 cells/well were plated onto 384-well MTPs and cultured for 20 to 24 hours at 37° C. and 5% CO2. After removal of the cell culture medium, the cells were washed once with tyrode (150 mM NaCl, 0.3 mM KCl, 2 mM CaCl2, 1 mM MgCl2, 0.8 mM NaH2PO4, 5 mM Glucose, 28 mM Hepes, pH 7.4) and then loaded with the voltage sensitive dye of the Membrane Potential Assay Kit diluted in tyrode for 1 h at room temperature.
After starting the measurement of fluorescence using a FLIPR Tetra (Molecular Devices, Exc. 510-545 nm, Emm. 565-625 nm), test compounds were added followed by the addition of KCl tyrode (final assay concentration: 70 mM KCl, 2 mM CaCl2, 1 mM MgCl2, 0.8 mM NaH2PO4, 5 mM Glucose, 28 mM Hepes, pH 7.4, including the voltage sensitive dye). The measurement was completed after 7 minutes.
The data were evaluated by using the ActivityBase XLfit software (IDBS) for curve fitting and calculation of the half-maximal effective concentration (EC50) and are reported as negative decadic logarithm (pE50).
Experimental for Cooperia curticei: In Vitro Assay 6: Cooperia curticei
Solvent: Dimethyl Sulfoxide
Approximately 40 nematode larvae (Cooperia curticei) are transferred into a test tube containing the compound solution.
After 5 days percentage of larval mortality is recorded. 100% efficacy means all larvae are killed; 0% efficacy means no larvae are killed.
Experimental for Haemonchus contortus: In Vitro Assay 7: Haemonchus contortus
Solvent: Dimethyl Sulfoxide
Approximately 40 larvae of the red stomach worm (Haemonchus contortus) are transferred into a test tube containing compound solution.
After 5 days the percentage of larval mortality is recorded. 100% efficacy means all larvae are killed, 0% efficacy means no larvae are killed.

For the molecule `CN(C)c1c(C(=O)N[C@H]2CCOc3ccccc32)nnc2c(-c3cccc(Cl)c3Cl)cccc12` [Example T5-3, 8-(2,3-Dichlorophenyl)-N-[(4S)-3,4-dihydro-2H-chromen-4-yl]-4-(dimethylamino)cinnoline-3-carboxamide], in the assay with Cooperia curticei, the mortality at 20 ppm amounted to 80%. For the same molecule, the EC50 was less than 0.1 µg/mL in the assay with Dirofilaria immitis, less than 3.16 nM at C. elegans Slo-1a, less than 0.1 µg/mL in assay [1] and 3.16 to 31.6 nM at D. immitis Slo-1. In addition, the inhibition at 1 µg/mL in assay [2] was greater than 80%.

On to `O=C(N[C@H]1CCOc2ccccc21)c1cnc2c(-c3cc(Cl)cc(Cl)c3)cnnc2c1N1CCOCC1` [Example T6-4, 4-(3,5-Dichlorophenyl)-N-[(4S)-3,4-dihydro-2H-chromen-4-yl]-8-(morpholin-4-yl)pyrido[3,2-c]pyridazine-7-carboxamide], for which the values for the mortality at 20 ppm in the assay on Cooperia curticei and with Haemonchus contortus were 90% and 80%, respectively. For the same molecule, the EC50 on C. elegans Slo-1a and on D. immitis Slo-1 was 31.6 to 316 nM throughout.

For `O=C(N[C@H]1CCOc2ccccc21)c1cnc2c(-c3cc(Cl)cc(Cl)c3)ccnc2c1N1CCOCC1` [Example T3-2, 8-(3,5-Dichlorophenyl)-N-[(4S)-3,4-dihydro-2H-chromen-4-yl]-4-(morpholin-4-yl)-1,5-naphthyridine-3-carboxamide], the mortality at 4 ppm in the assay on Cooperia curticei was 90%. Further, the mortality at 20 ppm with Cooperia curticei and with Haemonchus contortus was 90% throughout. Further, the EC50 in the assay on Dirofilaria immitis was less than 0.1 µg/mL; on C. elegans Slo-1a it was 3.16 to 31.6 nM; in assay [1], less than 0.1 µg/mL.

As to `CN(C)c1c(C(=O)N[C@H]2CCOc3ccccc32)cnc2c(-c3cc(Cl)cc(Cl)c3)cnnc12` [Example T6-3, 4-(3,5-Dichlorophenyl)-N-[(4S)-3,4-dihydro-2H-chromen-4-yl]-8-(dimethylamino)pyrido[3,2-c]pyridazine-7-carboxamide], the mortality at 20 ppm with Haemonchus contortus is 90%. For the same molecule, the half-maximal effective concentration (EC50) in the assay with Dirofilaria immitis was less than 0.1 µg/mL; at C. elegans Slo-1a, 3.16 to 31.6 nM; in assay [1], less than 0.1 µg/mL; on D. immitis Slo-1, 31.6 to 316 nM. Also, the inhibition at 1 µg/mL in assay [2] is greater than 80%.

In the case of `CN(C)c1c(C(=O)N[C@H]2CCOc3ccccc32)cnc2c(-c3cc(Cl)cc(Cl)c3)ncnc12` [Example T4-1, 4-(3,5-Dichlorophenyl)-N-[(4S)-3,4-dihydro-2H-chromen-4-yl]-8-(dimethylamino)-pyrido[3,2-d]pyrimidine-7-carboxamide], in the assay with Cooperia curticei, the mortality at 20 ppm is 80%. Further, the EC50 in the assay with Dirofilaria immitis was less than 0.1 µg/mL; on C. elegans Slo-1a, 3.16 to 31.6 nM; in assay [1], less than 0.1 µg/mL; on D. immitis Slo-1 it was 31.6 to 316 nM. Besides, in assay [2], the inhibition at 1 µg/mL is greater than 80%. Further, the inhibition at 10 µg/mL in assay [2] was greater than 80%.

As for `COc1c(C(=O)N[C@H]2CCOc3ccccc32)nnc2c(-c3cccc(Cl)c3)cccc12` [Example T5-6, 8-(3-Chlorophenyl)-N-[(4S)-3,4-dihydro-2H-chromen-4-yl]-4-methoxycinnoline-3-carboxamide], the mortality at 20 ppm in the assay on Cooperia curticei was 80%. The results for the 50% effective concentration (EC50) (at C. elegans Slo-1a; in assay [1]; at D. immitis Slo-1) were 3.16 to 31.6 nM, less than 0.1 µg/mL and 31.6 to 316 nM, respectively.

On to `O=C(N[C@H]1CCOc2ccccc21)c1cnc2c(-c3cc(Cl)cc(Cl)c3)ncnc2c1N1CCOCC1` [Example T4-2, 4-(3,5-Dichlorophenyl)-N-[(4S)-3,4-dihydro-2H-chromen-4-yl]-8-(morpholin-4-yl)pyrido[3,2-d]pyrimidine-7-carboxamide], for which the concentration giving a half-maximal response (EC50) with Dirofilaria immitis is less than 0.1 µg/mL; at C. elegans Slo-1a it was 3.16 to 31.6 nM; in assay [1], less than 0.1 µg/mL; at D. immitis Slo-1, 31.6 to 316 nM. In addition, the inhibition at 1 µg/mL in assay [2] is greater than 80%. For the same molecule, in assay [2], the inhibition at 10 µg/mL was greater than 80%.

Regarding `O=C(N[C@H]1CCOc2ccccc21)c1cnc2c(-c3cc(Cl)cc(Cl)c3)cncc2c1N1CCOCC1` [Example T2-4, 8-(3,5-Dichlorophenyl)-N-[(4S)-3,4-dihydro-2H-chromen-4-yl]-4-(morpholin-4-yl)-1,6-naphthyridine-3-carboxamide], the EC50 in the assay on Dirofilaria immitis was less than 0.1 µg/mL; at C. elegans Slo-1a it was 3.16 to 31.6 nM; in assay [1] it was less than 0.1 µg/mL; at D. immitis Slo-1, 31.6 to 316 nM. Besides, in assay [2], the inhibition at 1 µg/mL is greater than 80%.

On to `CN(C)c1c(C(=O)N[C@H]2CCOc3ccccc32)cnc2c(-c3cccc(Cl)c3Cl)cnnc12` [Example T6-1, 4-(2,3-Dichlorophenyl)-N-[(4S)-3,4-dihydro-2H-chromen-4-yl]-8-(dimethylamino)pyrido[3,2-c]pyridazine-7-carboxamide], for which the mortality at 20 ppm was found to be 90% in the assay on Cooperia curticei and 100% in the assay with Haemonchus contortus. In addition, the EC50 is less than 0.1 µg/mL in the assay with Dirofilaria immitis, 3.16 to 31.6 nM on C. elegans Slo-1a and less than 0.1 µg/mL in assay [1]. Besides, in assay [2], the inhibition at 1 µg/mL is greater than 80%.

In the case of `COc1cnc(-c2cccc(Cl)c2Cl)c2ncc(C(=O)N[C@H]3CCOc4ccccc43)c(N3CCOCC3)c12` [Example T1-14, 8-(2,3-dichlorophenyl)-N-[(4S)-3,4-dihydro-2H-1-benzopyran-4-yl]-5-methoxy-4-(morpholin-4-yl)-1,7-naphthyridine-3-carboxamide], the concentration giving a half-maximal response (EC50) is less than 0.1 µg/mL in the assay with Dirofilaria immitis, 3.16 to 31.6 nM at C. elegans Slo-1a, less than 0.1 µg/mL in assay [1] and 31.6 to 316 nM at D. immitis Slo-1. Moreover, the inhibition at 1 µg/mL in assay [2] was greater than 80%. The inhibition at 10 µg/mL in assay [2] is greater than 80%.

Turning to `CN(C)c1c(C(=O)N[C@H]2CCOc3ccccc32)nnc2c(-c3cccc(Cl)c3)cccc12` [Example T5-2, 8-(3-Chlorophenyl)-N-[(4S)-3,4-dihydro-2H-chromen-4-yl]-4-(dimethylamino)cinnoline-3-carboxamide], the mortality at 20 ppm in the assay on Cooperia curticei and with Haemonchus contortus was 80% in each case. Moreover, the half-maximal effective concentration (EC50) at C. elegans Slo-1a was 3.16 to 31.6 nM; in assay [1], less than 0.1 µg/mL; at D. immitis Slo-1 it was 31.6 to 316 nM.

`O=C(N[C@H]1CCOc2ccccc21)c1cnc2c(-c3cccc(Cl)c3Cl)cnnc2c1N1CCOCC1` [Example T6-2, 4-(2,3-Dichlorophenyl)-N-[(4S)-3,4-dihydro-2H-chromen-4-yl]-8-(morpholin-4-yl)pyrido[3,2-c]pyridazine-7-carboxamide]: in the assay with Cooperia curticei, the mortality at 20 ppm is 90%. Further, the values for the half-maximal effective concentration (EC50) (on C. elegans Slo-1a; in assay [1]) were 31.6 to 316 nM and less than 0.1 µg/mL, respectively. Besides, the inhibition at 1 µg/mL in assay [2] is greater than 80%.

Consider `CN(C)c1c(C(=O)N[C@H]2CCOc3ccccc32)nnc2c(-c3cc(Cl)cc(Cl)c3)cccc12` [Example T5-1, 8-(3,5-Dichlorophenyl)-N-[(4S)-3,4-dihydro-2H-chromen-4-yl]-4-(dimethylamino)cinnoline-3-carboxamide], for which the EC50 with Dirofilaria immitis was less than 0.1 µg/mL; at C. elegans Slo-1a, less than 3.16 nM; in assay [1], less than 0.1 µg/mL; at D. immitis Slo-1, 31.6 to 316 nM. Besides, the inhibition at 1 µg/mL in assay [2] was greater than 80%.

For `O=C(N[C@H]1CCOc2ccccc21)c1cnc2c(-c3cccc(Cl)c3Cl)ncc(F)c2c1N1CCOCC1` [Example T1-7, 8-(2,3-dichlorophenyl)-N-[(4S)-3,4-dihydro-2H-1-benzopyran-4-yl]-5-fluoro-4-(morpholin-4-yl)-1,7-naphthyridine-3-carboxamide], the EC50 in the assay with Dirofilaria immitis is less than 0.1 µg/mL; at C. elegans Slo-1a, less than 3.16 nM; in assay [1] it was less than 0.1 µg/mL; on D. immitis Slo-1 it was 3.16 to 31.6 nM. The inhibition at 1 µg/mL in assay [2] was greater than 80%. The inhibition at 10 µg/mL in assay [2] was greater than 80%.

By mortality is commonly meant the percentage killed. By EC50 is commonly meant the concentration that produces a half-maximal response.
